# In US5686606A, “UCF116 compounds” (Kyowa Hakko Kogyo, Co., Ltd., priority 1994, dated 1997):
# Read-outs that look alike come from different tables or passages of the source.
# Columns and labels:
# [1] = test system: isogenic tumor in K-BALB mice; experiment: Antitumor activity against isogenic tumor system in K-BALB mice; type: in vivo; conditions: 10.0 mg/kg, intraperitoneal, 5 consecutive days from 7th day after s.c. transplantation, BALB/c mouse
# Experimental: The antitumor activity against an isogenic tumor system in K-BALB mice was measured according to the method described in Proc. Natl. Acad. Sci., 90, 2281 (1993). That is, an isogenic tumor in K-BALB mice was resected from a donor mouse, and a 2×2×2 mm (8 mm^3) tumor piece was subcutaneously transplanted into a BALB/c mouse at the ventral side using a trocar. After the graft survival was confirmed on the 7th day after the transplantation, a test compound was intraperitoneally administered for 5 consecutive days from the same day. The longer diameter and the shorter diameter of the tumor were measured with slide calipers, and the tumor volume was calculated according to the formula: (longer diameter)×(shorter diameter)^2 /2 [Cancer Chemother. Rep., Part III, 3, 1 (1972)]. The antitumor effect was evaluated in terms of T/C, the ratio of the tumor volume of a test compound-treated group (T) to that of an untreated group (C).
# HR-3Y1 cells = experiment: Growth inhibition against HR-3Y1 cells; type: cell-based; conditions: 72 hours, 37° C., Giemsa staining
# Experimental: An HR-3Y1 cell suspension (3.0×10^4 cells/ml) prepared by suspending HR-3Y1 cells in a medium comprising MEM medium (Nissui Pharmaceutical Co., Ltd.) and 10% fetal calf serum (hereinafter referred to as Medium A) was put into wells of a 96-well microtiter plate in an amount of 0.1 ml per well. After the cells in the plate were cultivated at 37° C. for 20 hours in a CO2 -incubator, a test compound appropriately diluted with Medium A was added to the wells in an amount of 0.1 ml per well. The cells were further cultivated at 37° C. for 72 hours in the CO2 -incubator. After the cultivation supernatant was removed, the residue was washed once with physiological saline and then treated with 0.1 ml of methanol for 10 minutes to fix the cells. The cells were stained with 0.1 ml of Giemsa's staining solution [Giemsa's staining solution, Merck Art 9204 (Merck & Co., Inc.): physiological saline=1:10] for 5 minutes. After the staining solution was removed, the residue was washed once with 0.2 ml of water. Then, the dye was extracted with 0.2 ml of 0.1 N hydrochloric acid and the absorbance was measured at 620 nm with a microplate reader.
# The concentration of the test compound at which the growth of the cells is inhibited by 50% (IC50) was calculated by comparing the absorbance of untreated cells with those of the cells treated with the test compound at known concentrations.
# [2] = test system: Candida albicans ATCC 10231; experiment: Antibacterial activity (MIC), agar dilution method; type: cell-based
# Experimental: (§1) The antibacterial activity was determined by the agar dilution method using a medium (pH 7) which comprises 3 g/l Bacto-tryptone (Difco Laboratories),3 g/l meat extract, 1 g/f yeast extract, 1 g/l glucose and 16 g/l agar.
# [3] = test system: Enterococcus faecium ATCC 10541; experiment: Antibacterial activity (MIC), agar dilution method; type: cell-based
# Experimental: as §1
# [4] = test system: Staphylococcus aureus ATCC 6538P; experiment: Antibacterial activity (MIC), agar dilution method; type: cell-based; conditions: ATCC6538P, pH 7
# Experimental: as §1
# Solubility = type: physicochemical
# BALB 3T3/H-ras cells = experiment: Growth inhibition against BALB 3T3/H-ras cells; type: cell-based; conditions: Mus musculus, 72 hours, 37° C., Giemsa staining
# Experimental: A BALB 3T3/H-ras cell suspension (3.0×10^4 cells/ml) prepared by suspending BALB 3T3/H-ras cells ([…]) in a medium comprising MEM medium (Nissui Pharmaceutical Co., Ltd.) and 10% fetal calf serum (hereinafter referred to as Medium A) was put into wells of a 96-well microtiter plate in an amount of 0.1 ml per well. After the cells in the plate were cultivated at 37° C. for 20 hours in a CO2 -incubator, a test compound appropriately diluted with Medium A was added to the wells in an amount of 0.1 ml per well. The cells were further cultivated at 37° C. for 72 hours in the CO2 -incubator. After the cultivation supernatant was removed, the residue was washed once with physiological saline and then treated with 0.1 ml of methanol for 10 minutes to fix the cells. The cells were stained with 0.1 ml of Giemsa's staining solution [Giemsa's staining solution, Merck Art 9204 (Merck & Co., Inc.): physiological saline=1:10] for 5 minutes. After the staining solution was removed, the residue was washed once with 0.2 ml of water. Then, the dye was extracted with 0.2 ml of 0.1 N hydrochloric acid and the absorbance was measured at 620 nm with a microplate reader. […]
# [5] = ATCC10231, Candida albicans ATCC 10231, agar dilution, pH 7, read-out: MIC
# [6] = ATCC10541, Enterococcus faecium ATCC 10541, agar dilution, pH 7, read-out: MIC
# [7] = Staphylococcus aureus ATCC 6538P, agar dilution, read-out: MIC
Compound,T/C (ratio of tumor volume of treated group to untreated group) [1],IC50 (HR-3Y1 cells) [nM],"MIC [2, 5] [µg/mL]","MIC [3, 6] [µg/mL]","MIC [4, 7] [µg/mL]","Solubility in DMSO, chloroform, acetone and ethyl acetate (Solubility)",Solubility in water and hexane (Solubility),IC50 (BALB 3T3/H-ras cells) [nM],"MIC ([2]; Candida albicans, ATCC10231, pH 7) [µg/mL]","MIC ([3]; Enterococcus faecium, ATCC10541, pH 7) [µg/mL]",MIC ([4]; Staphylococcus aureus) [µg/mL]
CO[C@H]1/C=C/C=C/C=C/C[C@H](OC(=O)[C@@H](C)NC(=O)C2=CCCCC2)[C@H](C)[C@@H](O)/C(C)=C\CCc2cc(O)cc(c2O)NC(=O)C1 [UCF116-B],0.25,350,20.8,41.7,41.7,Soluble,insoluble,390,,,
CO[C@H]1/C=C/C=C/C=C/C[C@H](OC(=O)C2(NC(=O)C3CCCCC3)CC2)[C@H](C)[C@@H](O)/C(C)=C\CCC2=CC(=O)C=C(NC(=O)C1)C2=O [UCF116-A3],,950,41.7,83.3,41.7,Soluble,insoluble,,,,
C/C=C(\C)C(=O)N[C@H](C)C(=O)O[C@H]1C/C=C/C=C/C=C/[C@H](OC)CC(=O)Nc2cc(O)cc(c2O)CC/C=C(/C)[C@H](O)[C@H]1C [UCF116-D],,,,,,Soluble,insoluble,660,83.3,83.3,83.3
